Data taken from patent US20210259954A1, “CILIA-TARGETING NANOPARTICLES” (Chapman University, priority 2019, published 2021).

Tests used:
[1] = system: Tie2Cre⋅Pkd2^flox/flox mice; assay: Endothelial-specific Pkd2 mouse model, 8-week treatment (Example 2); assay type: in vivo
Experimental: Mouse models. All mouse experiments were performed by two operators who were blinded to the experimental conditions. All animal procedures were performed according to the University of California Irvine and Chapman University Animal Care and Use Committee Guidelines. One-week-old Tie2Cre⋅Pkd2^WT/WT (with Cre activation; control group), Tie2Cre⋅Pkd2^flox/flox (without Cre activation; control group) or Tie2Cre⋅Pkd2^flox/flox (with Cre activation; experimental group) mice were intraperitoneally injected with 250 μg of tamoxifen in a 50-μL volume daily for five consecutive days. A limited number of IFT88 mice was also used as a cilia-less model in this study. […] On the other hand, fenoldopam-alone (1 μg/kg/min) was perfused for 30 minutes every 72 hours for 8 weeks. […] Five minutes after the CT-Fe2O3-NP injection, a 1.35-T AlNiCo cylindrical magnet (VWR International) was placed at the posterior and anterior regions of the mouse for 10 minutes daily.
Mouse blood pressure measurements. […] Blood pressure was measured twice daily for the duration of the study after the initial three days of acclimating each mouse to the cuff. All measurements were performed by operators in a double-blind. At the end of the 12-week treatment, the haematology results including the BUN and plasma nitrate/nitrite measurements were examined. BUN assays were conducted using an Arbor Assays calorimetric Detection Kit. Plasma nitrate/nitrite concentrations were quantified using a Cayman nitrate/nitrite assay kit. All steps were performed according to the manufacturers' instructions.
H&E and Masson's trichrome staining. Sections of the zebrafish (whole body) and major mouse organs, including the hearts, kidneys, livers, spleens and lungs, were collected and subjected to H&E staining for zebrafish cysts and histopathology by fixation in 10% formalin. Then, the tissues were dehydrated in buffered formalin, ethanol, and xylene. Finally, the tissues were embedded in liquid paraffin, sectioned (4 μm), and stained with H&E for histological examinations. The pathology slices were observed and imaged using a KEYENCE-BZ-X710 microscope. Mouse heart sections were stained with Masson's trichrome to detect fibrosis using a Masson's Trichrome Stain Kit (Polysciences).

[2] = system: Tie2Cre⋅Pkd2^flox/flox mice; assay: Endothelia-specific Pkd2 knockout hypertensive mouse model, 8-week treatment (Example 1); assay type: in vivo
Experimental: One-week-old Tie2Cre⋅Pkd2^WT/WT (with cre activation; control group) or Tie2Cre⋅Pkd2^flox/flox (without cre activation; control group), and Tie2Cre⋅Pkd2^flox/flox (with cre activation; experimental group) mice were injected intra-peritoneally with 5 μg/μL tamoxifen every day for five consecutive days. […] The overall process for the preparation of the final nano-formulation for the animal studies included the following steps. The lyophilized antibody conjugated and drug-loaded CT-DAu-NPs or CT-PLGA-NP powders were first brought to the room temperature from a storage at −50° C. […] The formulations were mixed by vortex for 2 minutes followed by filtration of 0.2 μm. […] The mice were treated every 72 hours with different NPs for 8 weeks. Blood pressure from four-week-old mice was taken with the non-invasive tail-cuff method using the CODA system (Kent Scientific). Blood pressure was measured twice daily for the duration of the study after the initial three days of acclimating each mouse to the cuff. At the end of the 12 weeks of treatment, the hematology parameters, including the blood urea nitrogen (BUN) and plasma nitrate/nitrite measurements, were examined. BUN assays were conducted using a calorimetric kit (Arbor Assays). Plasma nitrate/nitrite concentrations were quantified using a nitrate/nitrite assay kit (Cayman). All steps were followed according to the manufacturer's instructions. […] Then, the tissues were dehydrated using buffered ethanol, and xylene. Finally, the tissues were embedded in wax, sectioned (4 μm, Microtome, HM-3555, Thermo Scientific) and were subsequently stained with standard hematoxylin and eosin (H&E). The pathology slices were observed and imaged using a KEYENCE-BZ-X710 microscope. Mouse heart sections were stained with Masson's Trichrome to detect fibrosis using a Masson's Trichrome Stain Kit (Polysciences, Inc.).

[3] = system: Tie2Cre⋅Pkd2^flox/flox mice; assay: Working heart perfusion system, hearts of treated Pkd2 mice (Example 2); assay type: in vivo, mouse
Experimental: All mouse experiments were performed by two operators who were blinded to the experimental conditions. […] One-week-old Tie2Cre⋅Pkd2^WT/WT (with Cre activation; control group), Tie2Cre⋅Pkd2^flox/flox (without Cre activation; control group) or Tie2Cre⋅Pkd2^flox/flox (with Cre activation; experimental group) mice were intraperitoneally injected with 250 μg of tamoxifen in a 50-μL volume daily for five consecutive days.
The ex vivo measurements of heart parameters were recorded using a mouse working heart system from Emka Technologies to study heart function independently of neuronal innervation or humoural effects. This system collected data regarding the cardiac contractile strength, electrical heart propagation or ECG and other cardiac functions, including the HR, LVP, LVV, left atrial pressure (LAP), aortic out flow (AOF), stroke volume (SV), cardiac output (CO), end diastolic/systolic volume (Edv-Esv), rate of left atrial pressure raise (+dp/dt) and fall (−dt/dt), and the preload, afterload, and main aortic pressure. Heparin (100 units, IP), xylazine (10-15 mg/kg, IP), and ketamine (200-350 mg/kg, IP) were used to prevent blood coagulation in the coronary arteries and to anaesthetize the mice. After cannulation, the heart was perfused with Krebs-Ringer superfusion solution (in mM: 125 NaCl, 2.5 KCl, 1.25 NaH2PO4, 2 CaCl2, 1 MgCl2, 25 NaHCO3 and 25 glucose). Throughout the experiment, the solution was continuously bubbled with carbogen (95% O2 and 5% CO2) to reach pH 7.4 at 38.0° C. Stress tests were performed on the heart by perfusing epinephrine (4 μg/L) or diltiazem (0.08 μg/L). Cardiac function was plotted in a loop diagram showing the LVV-LVP relationship (volume-pressure loop).

Oc1ccc(C2CNCCc3c2cc(O)c(O)c3Cl)cc1 (stereo not drawn) [Fenoldopam, fenoldopam]
acute blood pressure and heart rate ([1]; 60 minutes after infusion): immediate decrease in blood pressure, followed by reflex tachycardia
blood pressure (SBP, MAP) ([1]; Pkd2 mice, every 72 hours for 8 weeks): did not result in an overall decrease in systemic blood pressure
mortality ([1]; Pkd2 mice, repeated infusions for 8 weeks): 40%
duration of blood pressure decrease ([1]; after infusion): approximately one
cilia length ([1]; continuous infusion for 5 days): increased the cilia length
cilia length in aorta and heart ([2]; 24 or 72 hours after treatment): increased by CTNDDS but not fenoldopam
blood urea nitrogen (BUN) ([2]; Pkd2 mice): could not be corrected
plasma nitrate/nitrite ([2]; Pkd2 mice): could not be corrected
acute blood pressure and heart rate ([2]; Pkd2 mice, 10-minute infusion): significantly decreased blood pressure followed by reflex tachycardia
blood pressure (SBP, MAP) ([2]; hypertensive Pkd2 mice, every 3 days for 8 weeks): no long-term effect
CO, cardiac output ([3]; diltiazem stress): 1783 ± 32 µL/min
EDPVR, end-diastolic pressure volume relation ([3]; diltiazem stress): 0.14 ± 0.01 mmHg/μL
EF, ejection fraction ([3]; diltiazem stress): 49.5 ± 0.3%
ESPVR, end-systolic pressure volume relation ([3]; diltiazem stress): 2.21 ± 0.03 mmHg/μL
HR, heart rate ([3]; diltiazem stress): 94 ± 11 beat/min
LV EDP, end-diastolic pressure ([3]; diltiazem stress): 5.7 ± 0.2 mmHg
LV EDV, end-diastolic volume ([3]; diltiazem stress): 40.0 ± 0.4 µL
LV ESP, end-systolic pressure ([3]; diltiazem stress): 35.5 ± 0.5 mmHg
LV ESV, end-systolic volume ([3]; diltiazem stress): 20.2 ± 0.1 µL
LV Pmax, systolic pressure ([3]; diltiazem stress): 44.7 ± 0.7 mmHg
SV, stroke volume ([3]; diltiazem stress): 19.8 ± 0.3 µL
SW, stroke work ([3]; diltiazem stress): 772 ± 10 mmHg · μL
dP/dtmax, maximum rate of LV pressure rise ([3]; diltiazem stress): 4020 ± 642 mmHg/s
dP/dtmin, maximum rate of LV pressure fall ([3]; diltiazem stress): −1537 ± 97 mmHg/s
EDPVR, end-diastolic pressure volume relation ([3]; epinephrine stress): 0.16 ± 0.01 mmHg/μL
EF, ejection fraction ([3]; epinephrine stress): 77.7 ± 2.0%
ESPVR, end-systolic pressure volume relation ([3]; epinephrine stress): 9.8 ± 0.88 mmHg/μL
HR, heart rate ([3]; epinephrine stress): 216 ± 47 beat/min
LV EDP, end-diastolic pressure ([3]; epinephrine stress): 6.4 ± 0.5 mmHg
LV EDV, end-diastolic volume ([3]; epinephrine stress): 39.9 ± 0.1 µL
LV ESP, end-systolic pressure ([3]; epinephrine stress): 64.2 ± 0.9 mmHg
LV ESV, end-systolic volume ([3]; epinephrine stress): 8.9 ± 0.8 µL
LV Pmax, systolic pressure ([3]; epinephrine stress): 85.6 ± 1.2 mmHg
SV, stroke volume ([3]; epinephrine stress): 31.0 ± 0.8 µL
SW, stroke work ([3]; epinephrine stress): 2569 ± 53 mmHg · μL
dP/dtmax, maximum rate of LV pressure rise ([3]; epinephrine stress): 17130 ± 239 mmHg/s
dP/dtmin, maximum rate of LV pressure fall ([3]; epinephrine stress): −3844 ± 278 mmHg/s
CO, cardiac output ([3]; vehicle): 3402 ± 92 µL/min
EDPVR, end-diastolic pressure volume relation ([3]; vehicle): 0.13 ± 0.01 mmHg/μL
EF, ejection fraction ([3]; vehicle): 62.5 ± 0.2%
ESPVR, end-systolic pressure volume relation ([3]; vehicle): 4.6 ± 0.04 mmHg/μL
HR, heart rate ([3]; vehicle): 136 ± 26 beat/min
LV EDP, end-diastolic pressure ([3]; vehicle): 5.0 ± 0.1 mmHg
LV EDV, end-diastolic volume ([3]; vehicle): 40.0 ± 0.1 µL
LV ESP, end-systolic pressure ([3]; vehicle): 52.2 ± 0.5 mmHg
LV ESV, end-systolic volume ([3]; vehicle): 15.0 ± 0.1 µL
LV Pmax, systolic pressure ([3]; vehicle): 69.7 ± 0.7 mmHg
SV, stroke volume ([3]; vehicle): 25.0 ± 0.1 µL
SW, stroke work ([3]; vehicle): 1616 ± 70 mmHg · μL
dP/dtmax, maximum rate of LV pressure rise ([3]; vehicle): 7524 ± 71 mmHg/s
dP/dtmin, maximum rate of LV pressure fall ([3]; vehicle): −1625 ± 27 mmHg/s
